Assay results taken from patent publication US20050197338A1, “Substituted pyrazole urea compounds for the treatment of inflammation” (priority 2003, published 2005).

target: T1, human IKK-2 (rhIKK-2 homodimer) (Homo sapiens, UniProt O14920); assay: IKK-2 Resin Enzyme Assay (Human IKK-2 Enzyme Assay); assay type: biochemical; conditions: human IKK-2, resin enzyme assay; read-out: IC50 (μM) hIKK-2
T1 construct: FLAG (DYKDDDDKD) (C); made in house; host or cells: insect cells (baculovirus, pFastBac)
T1 sequence (O14920 1-756): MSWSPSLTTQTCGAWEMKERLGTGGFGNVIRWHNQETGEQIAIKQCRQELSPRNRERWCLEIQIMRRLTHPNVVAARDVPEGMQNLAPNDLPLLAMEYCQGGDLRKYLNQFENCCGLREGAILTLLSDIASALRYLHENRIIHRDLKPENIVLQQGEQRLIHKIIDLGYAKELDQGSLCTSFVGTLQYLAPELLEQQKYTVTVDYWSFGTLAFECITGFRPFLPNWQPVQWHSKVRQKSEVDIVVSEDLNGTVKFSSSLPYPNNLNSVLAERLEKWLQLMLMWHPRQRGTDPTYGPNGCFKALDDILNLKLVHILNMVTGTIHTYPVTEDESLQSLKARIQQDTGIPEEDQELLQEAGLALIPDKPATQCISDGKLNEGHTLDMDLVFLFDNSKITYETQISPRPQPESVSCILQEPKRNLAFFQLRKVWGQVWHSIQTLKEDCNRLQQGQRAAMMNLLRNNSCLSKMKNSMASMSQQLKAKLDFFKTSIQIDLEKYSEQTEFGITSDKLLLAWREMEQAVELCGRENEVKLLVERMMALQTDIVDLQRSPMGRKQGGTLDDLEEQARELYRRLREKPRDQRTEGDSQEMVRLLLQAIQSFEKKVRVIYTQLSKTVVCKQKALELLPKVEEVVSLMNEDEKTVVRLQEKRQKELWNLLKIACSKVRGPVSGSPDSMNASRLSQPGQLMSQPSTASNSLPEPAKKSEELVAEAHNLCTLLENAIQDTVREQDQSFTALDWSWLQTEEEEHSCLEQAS
How it was run: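 C-terminally FLAG-tagged human IKK-2 homodimer, baculovirus-expressed in insect cells and anti-FLAG purified. Reaction mix: 5 μM biotinylated IκBα peptide (Ser32/Ser36 region), 1 μM ATP with [γ-33P]ATP, 2 mM MgCl2, 2 mM MnCl2, 10 mM NaF, 1 mM DTT, 25 mM HEPES pH 7.6. Incubated 30 min at 25 °C; IC50 derived.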

SMILES	IC50 [µM]
CC1(C)OB(c2ccc(-n3cc(NC(N)=O)c(C(N)=O)n3)cc2)OC1(C)C [Example 260, 4-[(aminocarbonyl)amino]-1-[4-(4,4,5,5-tetramethyl-1,3,2-dioxaborolan-2-yl)phenyl]-1H-pyrazole-3-carboxamide]	0.512
COc1ccc(Cc2cccc(-n3cc(NC(N)=O)c(C(N)=O)n3)c2)cc1OC [Example 11, 4-[(aminocarbonyl)amino]-1-[3-(3,4-dimethoxybenzyl)phenyl]-1H-pyrazole-3-carboxamide]	6.36
N#CCCNC(=O)c1ccc(-c2cccc(-n3cc(NC(N)=O)c(C(N)=O)n3)c2)cc1 [Example 84, 4-[(aminocarbonyl)amino]-1-(4′-{[(2-cyanoethyl)amino]carbonyl}-1,1′-biphenyl-3-yl)-1H-pyrazole-3-carboxamide]	2.06
CCNC(=O)COc1ccc(F)cc1-c1ccc(-n2cc(NC(N)=O)c(C(N)=O)n2)cc1 [Example 257, 4-[(aminocarbonyl)amino]-1-{5′-fluoro-2′-[2-(ethylamino)-2-oxoethoxy]-1,1′-biphenyl-4-yl}-1H-pyrazole-3-carboxamide]	1.35
NC(=O)Nc1cn(-c2ccc(I)c(Cl)c2)nc1C(N)=O [Example 6, 4-[(aminocarbonyl)amino]-1-(3-chloro-4-iodophenyl)-1H-pyrazole-3-carboxamide]	0.546
CNC(=O)Nc1cn(-c2ccc(I)cc2)nc1C(N)=O [Example 17, 1-(4-iodophenyl)-4-{[(methylamino)carbonyl]amino}-1H-pyrazole-3-carboxamide]	1.72
COc1ccc(CNC(=O)CCc2cccc(-c3ccc(-n4cc(NC(N)=O)c(C(N)=O)n4)cc3)c2)c(OC)c1 [Example 380, 4-[(aminocarbonyl)amino]-1-(3′-{3-[(2,4-dimethoxybenzyl)amino]-3-oxopropyl}-1,1′-biphenyl-4-yl)-1H-pyrazole-3-carboxamide]	1.54
NC(=O)Nc1cn(-c2ccc([S+]([O-])c3cccc(F)c3)cc2)nc1C(N)=O (stereo not drawn) [Example 201, 1-(1-(4-(3-fluorophenylsulfinyl)phenyl)-3-carbamoyl-1H-pyrazol-4-yl)urea]	0.532
NC(=O)Nc1cn(-c2cccc(-c3cccc4ncccc34)c2)nc1C(N)=O [Example 60, 4-[(aminocarbonyl)amino]-1-(3-quinolin-5-ylphenyl)-1H-pyrazole-3-carboxamide]	3.75
Cc1ccc(-c2cccc(-n3cc(NC(N)=O)c(C(N)=O)n3)c2)cc1N [Example 77, 4-[(aminocarbonyl)amino]-1-(3′-amino-4′-methyl-1,1′-biphenyl-3-yl)-1H-pyrazole-3-carboxamide]	0.8
NC(=O)Nc1cn(-c2cccc(I)c2)nc1C(N)=O [Example 195, 1-(3-carbamoyl-1-(3-iodophenyl)-1H-pyrazol-4-yl)urea]	0.387
CC(C)c1ccc(-c2ccc(-n3cc(C(N)=O)c(NC(N)=O)n3)cc2)cc1 [Example 117]	> 20
NC(=O)Nc1cn(-c2ccc(S(N)(=O)=O)cc2)nc1C(N)=O [Example 301, 4-[(aminocarbonyl)amino]-1-[4-(aminosulfonyl)phenyl]-1H-pyrazole-3-carboxamide]	0.123
NC(=O)Nc1cn(-c2ccc(Sc3ccccc3F)cc2F)nc1C(N)=O [Example 211, 1-(1-(4-(2-fluorophenylthio)-2-fluorophenyl)-3-carbamoyl-1H-pyrazol-4-yl)urea]	10.5
NC(=O)Nc1cn(-c2ccc(-c3ccccc3O)c(C(F)(F)F)c2)nc1C(N)=O [Example 234, 4-[(aminocarbonyl)amino]-1-[2′-hydroxy-2-(trifluoromethyl)-1,1′-biphenyl-4-yl]-1H-pyrazole-3-carboxamide]	1.71
NC(=O)Nc1cn(-c2ccc([S+]([O-])c3ccccc3F)cc2)nc1C(N)=O (stereo not drawn) [Example 193, 1-(1-(4-(2-fluorophenylsulfinyl)phenyl)-3-carbamoyl-1H-pyrazol-4-yl)urea]	3.75
NC(=O)Nc1cn(-c2ccc(-c3ccc(C(=O)O)c(F)c3)cc2F)nc1C(N)=O [Example 248, 4′-{3-(aminocarbonyl)-4-[(aminocarbonyl)amino]-1H-pyrazol-1-yl}-3,3′-difluoro-1,1′-biphenyl-4-carboxylic acid]	0.386
CC(C#N)Oc1cccc(-c2ccc(-n3cc(NC(N)=O)c(C(N)=O)n3)cc2)c1 (stereo not drawn) [Example 169, 4-[(aminocarbonyl)amino]-1-[3′-(1-cyanoethoxy)-1,1′-biphenyl-4-yl]-1H-pyrazole-3-carboxamide]	1.83

SMILES	IC50 [µM]
CC(C)c1cccc(-c2ccc(-n3cc(C(N)=O)c(NC(N)=O)n3)cc2)c1 [Example 116]	11
CNC(=O)COc1ccc(F)cc1-c1ccc(-n2cc(NC(N)=O)c(C(N)=O)n2)cc1 [Example 256, 4-[(aminocarbonyl)amino]-1-{5′-fluoro-2′-[2-(methylamino)-2-oxoethoxy]-1,1′-biphenyl-4-yl}-1H-pyrazole-3-carboxamide]	1.07
CCOC(=O)c1ccc(-c2ccc(-n3cc(NC(N)=O)c(C(N)=O)n3)cc2)cc1 [Example 147, ethyl 4′-{3-(aminocarbonyl)-4-[(aminocarbonyl)amino]-1H-pyrazol-1-yl}-1,1′-biphenyl-4-carboxylate]	6.01
NC(=O)Nc1cn(-c2ccc([S+]([O-])C3CCCC3)cc2)nc1C(N)=O (stereo not drawn) [Example 283, 1-(3-carbamoyl-1-(4-(cyclopentylsulfinyl)phenyl)-1H-pyrazol-4-yl)urea]	0.431
NC(=O)Nc1nn(-c2ccc(-c3ccc(F)cc3F)cc2)cc1C(N)=O [Example 113]	0.355
NC(=O)Nc1cn(-c2ccc(SC3CCCCC3)cc2)nc1C(N)=O [Example 189, 1-(3-carbamoyl-1-(4-(cyclohexylthio)phenyl)-1H-pyrazol-4-yl)urea]	1.04
CC(C)(C)c1ccc(-c2ccc(-n3cc(C(N)=O)c(NC(N)=O)n3)cc2)cc1 [Example 126]	> 20
NC(=O)Nc1cn(-c2ccc(Sc3cccc(F)c3)cc2)nc1C(N)=O [Example 197, 1-(1-(4-(3-fluorophenylthio)phenyl)-3-carbamoyl-1H-pyrazol-4-yl)urea]	0.561
NCc1ccc(-c2cccc(-n3cc(NC(N)=O)c(C(N)=O)n3)c2)cc1 [Example 52, 4-[(aminocarbonyl)amino]-1-[4′-(aminomethyl)-1,1′-biphenyl-3-yl]-1H-pyrazole-3-carboxamide]	4.86
Cc1cc(-n2cc(NC(N)=O)c(C(N)=O)n2)ccc1S(=O)(=O)c1ccc(F)cc1 [Example 298, 1-[4-(4-fluoro-benzenesulfonyl)-3-methyl-phenyl]-4-ureido-1H-pyrazole-3-carboxylic acid amide]	0.724
NC(=O)Nc1cn(-c2cccc(Sc3ccccc3F)c2)nc1C(N)=O [Example 198, 1-(1-(3-(2-fluorophenylthio)phenyl)-3-carbamoyl-1H-pyrazol-4-yl)urea]	6.52
CCc1ccc(-c2cccc(-n3cc(NC(N)=O)c(C(N)=O)n3)c2)cc1 [Example 342, 4-[(aminocarbonyl)amino]-1-(4′-ethyl-1,1′-biphenyl-3-yl)-1H-pyrazole-3-carboxamide]	> 20
NC(=O)Nc1cn(-c2ccc(-c3ccc(C(=O)NCc4ccccc4)c(F)c3)cc2)nc1C(N)=O [Example 151, 4-[(aminocarbonyl)amino]-1-{4′-[(benzylamino)carbonyl]-3′-fluoro-1,1′-biphenyl-4-yl}-1H-pyrazole-3-carboxamide]	0.31
NC(=O)Nc1cn(-c2cccc(-c3cccc(Cl)c3)c2)nc1C(N)=O [Example 347, 4-[(aminocarbonyl)amino]-1-(3′-chloro-1,1′-biphenyl-3-yl)-1H-pyrazole-3-carboxamide]	> 20
NC(=O)Nc1cn(-c2cccc(-c3cncnc3)c2)nc1C(N)=O [Example 66, 4-[(aminocarbonyl)amino]-1-(3-pyrimidin-5-ylphenyl)-1H-pyrazole-3-carboxamide]	5.2
NC(=O)COc1ccc(F)cc1-c1ccc(-n2cc(NC(N)=O)c(C(N)=O)n2)cc1 [Example 252, 4-[(aminocarbonyl)amino]-1-[2′-(2-amino-2-oxoethoxy)-5′-fluoro-1,1′-biphenyl-4-yl]-1H-pyrazole-3-carboxamide]	0.492
NC(=O)Nc1cn(-c2ccc(-c3cccc(OCc4ccncc4)c3)cc2)nc1C(N)=O [Example 171, 4-[(aminocarbonyl)amino]-1-[3′-(pyridin-4-ylmethoxy)-1,1′-biphenyl-4-yl]-1H-pyrazole-3-carboxamide]	6.84
NC(=O)Nc1cn(-c2ccc(-c3ccc(C(=O)Nc4ccccn4)cc3)cc2)nc1C(N)=O [Example 33, 4-[(aminocarbonyl)amino]-1-{4′-[(pyridin-2-ylamino)carbonyl]-1,1′-biphenyl-4-yl}-1H-pyrazole-3-carboxamide]	0.89
